Where a name gives a salt, the structure may show the parent alone. Read-outs that look alike come from different tables or passages of the source.
How the values were obtained:
Type in all cases: biochemical
mMASP-2 = mMASP-2 (Mus musculus (Mouse), UniProt Q91WP0); experiment: Enzymatic inhibition of mMASP-2
Lectin Pathway = experiment: Lectin pathway activation assay in human serum (mannan-coated ELISA, C3c detection); conditions: 1% human serum
human α-thrombin = human α-thrombin (Homo sapiens (Human), UniProt P00734); experiment: Enzymatic assay for thrombin (Boc-VPR-AMC substrate)
MASP-2 (CCP1-CCP2-SP) = MASP-2 (CCP1-CCP2-SP) (Homo sapiens (Human), UniProt O00187); experiment: biochemical; conditions: for MASP-2 vs. thrombin selectivity: selectivity for MASP-2 inhibition versus thrombin
MASP-2 (CCP1-CCP2-SP), sequence (O00187 445-686): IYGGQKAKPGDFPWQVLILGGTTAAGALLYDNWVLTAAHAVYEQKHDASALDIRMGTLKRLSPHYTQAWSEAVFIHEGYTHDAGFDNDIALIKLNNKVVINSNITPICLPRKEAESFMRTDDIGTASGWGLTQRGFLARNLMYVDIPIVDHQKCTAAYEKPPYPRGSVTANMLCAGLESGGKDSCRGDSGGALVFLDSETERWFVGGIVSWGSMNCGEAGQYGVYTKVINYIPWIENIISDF

mMASP-2, sequence (Q91WP0 20-685): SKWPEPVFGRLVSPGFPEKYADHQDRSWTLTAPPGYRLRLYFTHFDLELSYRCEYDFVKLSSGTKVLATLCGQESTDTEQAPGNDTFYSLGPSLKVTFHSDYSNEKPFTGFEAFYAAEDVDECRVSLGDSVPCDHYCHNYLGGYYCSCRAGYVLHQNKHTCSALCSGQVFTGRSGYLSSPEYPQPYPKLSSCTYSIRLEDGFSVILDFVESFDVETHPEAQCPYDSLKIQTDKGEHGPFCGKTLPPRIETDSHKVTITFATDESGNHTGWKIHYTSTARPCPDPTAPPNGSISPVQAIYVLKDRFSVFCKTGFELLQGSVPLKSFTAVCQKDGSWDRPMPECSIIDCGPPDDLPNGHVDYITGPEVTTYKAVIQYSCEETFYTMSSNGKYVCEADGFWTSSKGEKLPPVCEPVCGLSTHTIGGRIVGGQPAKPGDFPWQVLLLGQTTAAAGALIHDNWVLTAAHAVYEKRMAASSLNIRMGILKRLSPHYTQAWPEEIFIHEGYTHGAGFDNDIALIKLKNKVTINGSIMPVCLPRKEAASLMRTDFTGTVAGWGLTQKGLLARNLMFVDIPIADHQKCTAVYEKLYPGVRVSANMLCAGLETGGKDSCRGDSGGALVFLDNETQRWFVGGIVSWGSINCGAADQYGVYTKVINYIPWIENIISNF

Row | SMILES | Ki (mMASP-2; read-out: mMASP-2 Ki) | IC50 (Lectin Pathway) | Ki (human α-thrombin; read-out: Thrombin Ki) | Ki (MASP-2 (CCP1-CCP2-SP); read-out: MASP-2 Ki) | MASP-2 vs. thrombin selectivity (MASP-2 (CCP1-CCP2-SP)) | Ki (human α-thrombin; Thrombin Ki (μM)) | Ki (MASP-2 (CCP1-CCP2-SP)) | Ki (mMASP-2)
1 | Cc1nc(N)ccc1CNC(=O)[C@H](C)NC(=O)[C@H]1C[C@H](Cc2ccc(Oc3ccccc3)cc2)CN1 [compound 1430, (2R,4S)—N—((S)-1-(((6-Amino-2-methylpyridin-3-yl)methyl)amino)-1-oxopropan-2-yl)-4-(4-phenoxybenzyl)pyrrolidine-2-carboxamide Di-trifluoroacetate salt] | < 500 nM | 500 to 5000 nM | > 25 µM | < 500 nM | **** (≥100-fold) |  |  | 
2 | Cc1nc(N)ccc1CNC(=O)[C@H](C)NC(=O)[C@H]1C[C@H](Cc2cc(Cl)cc(Cl)c2)CN1 [compound 1435, (2R,4S)—N—((S)-1-(((6-Amino-2-methylpyridin-3-yl)methyl)amino)-1-oxopropan-2-yl)-4-(3,5-dichlorobenzyl)pyrrolidine-2-carboxamide Dihydrochloride] | < 500 nM | 500 to 5000 nM |  | < 500 nM | **** (≥100-fold) | 10 to 25 µM |  | 
3 | Cc1cc(C)c(O)c(CNC(=O)[C@H](C)NC(=O)[C@H]2C[C@H](c3ccccc3)CN2)c1 [compound 1383, (2R,4R)—N—((S)-1-((2-Hydroxy-3,5-dimethylbenzyl)amino)-1-oxopropan-2-yl)-4-phenylpyrrolidine-2-carboxamide Hydrochloride] | 2500 to 10000 nM | 5000 to 50000 nM | > 25 µM |  |  |  | 500 to 2500 nM | 
4 | Cc1nc(N)ccc1CNC(=O)[C@H](C)NC(=O)[C@H]1C[C@H](Cc2ccc(F)cc2)CN1 [compound 1447, (2R,4S)—N—((S)-1-(((6-Amino-2-methylpyridin-3-yl)methyl)amino)-1-oxopropan-2-yl)-4-(4-fluorobenzyl)pyrrolidine-2-carboxamide Di-trifluoroacetate salt] | < 500 nM | 500 to 5000 nM |  | < 500 nM | **** (≥100-fold) | 2.5 to 10 µM |  | 
5 | Cc1nc(N)ccc1CNC(=O)[C@H](C)NC(=O)[C@H]1C[C@H](Cc2cccc(C#N)c2)CN1 [compound 1429, (2R,4S)—N—((S)-1-(((6-Amino-2-methylpyridin-3-yl)methyl)amino)-1-oxopropan-2-yl)-4-(3-cyanobenzyl)pyrrolidine-2-carboxamide Di-trifluoroacetate salt] | < 500 nM | 500 to 5000 nM |  | < 500 nM | **** (≥100-fold) | 2.5 to 10 µM |  | 
6 | Cc1cnc(NCCc2ccccc2)c(=O)n1CC(=O)NCc1ccc2nc(N)[nH]c2c1 [compound 1492, N-((2-Amino-1H-benzo[d]imidazol-6-yl)methyl)-2-(6-methyl-2-oxo-3-(phenethylamino)pyrazin-1(2H)-yl)acetamide Trifluoroacetamide salt] | < 500 nM | 50 to 500 nM | < 0.5 µM | < 500 nM | ** (≥5.0 to <25-fold) |  |  | 
7 | Cc1cc(C)cc(C[C@@H]2CN[C@@H](C(=O)N[C@@H](C)C(=O)NCc3ccc(N)nc3C)C2)c1 [compound 1331, (2R,4S)—N—((S)-1-(((6-amino-2-methylpyridin-3-yl)methyl)amino)-1-oxopropan-2-yl)-4-(3,5-dimethylbenzyl)pyrrolidine-2-carboxamide Dihydrochloride] | < 500 nM | 50 to 500 nM | > 25 µM | < 500 nM | **** (≥100-fold) |  |  | 
8 | Cc1nc(N)ccc1CNC(=O)[C@H](CCC(N)=O)NC(=O)[C@H]1C[C@H](Cc2ccccc2)CN1 [compound 1382, (S)—NI-((6-Amino-2-methylpyridin-3-yl)methyl)-2-((2R,4S)-4-benzylpyrrolidine-2-carboxamido)pentanediamide Di-trifluoroacetate salt] |  | 5000 to 50000 nM | > 25 µM | < 500 nM | *** (≥25 to <100-fold) |  |  | 2500 to 10000 nM
9 | Cc1cc(C)cc(C[C@@H]2CN[C@@H](C(=O)N[C@@H](C)C(=O)NCc3cc(Cl)ccc3-n3cnnn3)C2)c1 [compound 1416, (2R,4S)—N—((S)-1-((5-Chloro-2-(1H-tetrazol-1-yl)benzyl)amino)-1-oxopropan-2-yl)-4-(3,5-dimethylbenzyl)pyrrolidine-2-carboxamide Hydrochloride] | < 500 nM | 50 to 500 nM | < 0.5 µM | < 500 nM | ** (≥5.0 to <25-fold) |  |  | 
10 | Cc1nc(N)ccc1CNC(=O)[C@H](C)NC(=O)[C@H]1C[C@H](Cc2cccc(Cl)c2)CN1 [compound 1328, (2R,4S)—N—((S)-1-(((6-amino-2-methylpyridin-3-yl)methyl)amino)-1-oxopropan-2-yl)-4-(3-chlorobenzyl)pyrrolidine-2-carboxamide Dihydrochloride] | < 500 nM | 50 to 500 nM |  | < 500 nM | **** (≥100-fold) | 0.5 to 2.5 µM |  | 
11 | Cc1nc(N)ccc1CNC(=O)[C@H](C)NC(=O)[C@H]1C[C@@H](c2ccccc2)CCN1C [compound 1441, (2R,4S)—N—((S)-1-(((6-Amino-2-methylpyridin-3-yl)methyl)amino)-1-oxopropan-2-yl)-1-methyl-4-phenylpiperidine-2-carboxamide] | < 500 nM | 50 to 500 nM | > 25 µM | < 500 nM |  |  |  | 
12 | Cc1nc(N)ccc1CNC(=O)[C@H](C)NC(=O)[C@H]1Cc2c(sc3ccccc23)CN1 [compound 1400, (R)—N—((S)-1-(((6-Amino-2-methylpyridin-3-yl)methyl)amino)-1-oxopropan-2-yl)-1,2,3,4-tetrahydrobenzo[4,5]thieno[2,3-c]pyridine-3-carboxamide Hydrochloride] | 2500 to 10000 nM | 500 to 5000 nM | > 25 µM | < 500 nM |  |  |  | 
13 | Cc1nc(N)ccc1CNC(=O)[C@@H]1CCN1C(=O)[C@H]1C[C@H](Cc2ccc(Br)cc2)CN1 [compound 1438, (S)—N-((6-Amino-2-methylpyridin-3-yl)methyl)-1-((2R,4S)-4-(4-bromobenzyl)pyrrolidine-2-carbonyl)azetidine-2-carboxamide Di-trifluoroacetate salt] | 500 to 2500 nM | 500 to 5000 nM | < 0.5 µM | < 500 nM | ** (≥5.0 to <25-fold) |  |  | 
14 | Cc1nc(N)ccc1CNC(=O)[C@H](C)NC(=O)[C@H]1C[C@H](Cc2ccc3nsnc3c2)CN1 [compound 1449, (2R,4S)—N—((S)-1-(((6-Amino-2-methylpyridin-3-yl)methyl)amino)-1-oxopropan-2-yl)-4-(benzo[c][1,2,5]thiadiazol-5-ylmethyl)pyrrolidine-2-carboxamide Di-trifluoroacetate salt] | < 500 nM | 500 to 5000 nM |  | < 500 nM | **** (≥100-fold) | 2.5 to 10 µM |  | 
15 | C[C@H](NC(=O)[C@H]1C[C@H](Cc2cccc3ccccc23)CN1)C(=O)NCc1cnc2[nH]cc(Cl)c2c1 [compound 1415, (2R,4S)—N—((S)-1-(((3-Chloro-1H-pyrrolo[2,3-b]pyridin-5-yl)methyl)amino)-1-oxopropan-2-yl)-4-(naphthalen-1-ylmethyl)pyrrolidine-2-carboxamide Hydrochloride] | < 500 nM | 50 to 500 nM | < 0.5 µM | < 500 nM | * (≥1.0 to <5.0-fold) |  |  | 
16 | Cc1cnc(NCCc2ccccc2)c(=O)n1CC(=O)NCc1ccc2c(N)nccc2c1 [compound 1491, N-((1-Aminoisoquinolin-6-yl)methyl)-2-(6-methyl-2-oxo-3-(phenethylamino)pyrazin-1(2H)-yl)acetamide Trifluoroacetamide salt] | < 500 nM | 5000 to 50000 nM | < 0.5 µM |  | −− (<1.0-fold) |  | 500 to 2500 nM | 
17 | C[C@H](NC(=O)[C@@H](CCc1ccccc1)NCCc1ccc(Cl)cc1)C(=O)NCc1ccc(C(=N)N)cc1 [compound 1339, (R)—N—((S)-1-((4-Carbamimidoylbenzyl)amino)-1-oxopropan-2-yl)-2-((4-chlorophenethyl)amino)-4-phenylbutanamide Di-trifluoroacetate salt] | < 500 nM | < 50 nM | < 0.5 µM | < 500 nM | ** (≥5.0 to <25-fold) |  |  | 
18 | C[C@H](NC(=O)[C@H]1C[C@H](Cc2ccccc2)CN1)C(=O)NCc1cc(Cl)ccc1-n1cnnn1 [compound 1371, (2R,4S)-4-Benzyl-N-((S)-1-((5-chloro-2-(1H-tetrazol-1-yl)benzyl)amino)-1-oxopropan-2-yl)pyrrolidine-2-carboxamide Hydrochloride] | 500 to 2500 nM | 50 to 500 nM | < 0.5 µM | < 500 nM | −− (<1.0-fold) |  |  | 
19 | COc1ccc2cc(C[C@@H]3CN[C@@H](C(=O)N[C@@H](C)C(=O)NCc4ccc(N)nc4C)C3)ccc2c1 [compound 1453, (2R,4S)—N—((S)-1-(((6-Amino-2-methylpyridin-3-yl)methyl)amino)-1-oxopropan-2-yl)-4-((6-methoxynaphthalen-2-yl)methyl)pyrrolidine-2-carboxamide Dihydrochloride] | < 500 nM | < 50 nM |  | < 500 nM | **** (≥100-fold) | 10 to 25 µM |  | 
20 | Cc1nc(N)ccc1CNC(=O)[C@H](C)NC(=O)[C@H]1C[C@H](Cc2cc(Cl)ccc2Cl)CN1 [compound 1444, (2R,4S)—N—((S)-1-(((6-Amino-2-methylpyridin-3-yl)methyl)amino)-1-oxopropan-2-yl)-4-(2,5-dichlorobenzyl)pyrrolidine-2-carboxamide Dihydrochloride] | < 500 nM | 500 to 5000 nM | < 0.5 µM | < 500 nM | ** (≥5.0 to <25-fold) |  |  | 

— patent publication US11584714B2 (priority 2018, dated 2023)
